{"source": "paper PMC10539329", "about": "“NLRP6 potentiates PI3K/AKT signalling by promoting autophagic degradation of p85α to drive tumorigenesis” (Nature Communications, 2023)", "key": {"LN229 cells": {"system": "LN229 cells", "test": "Cell proliferation / viability assay, LN229", "format": "cell-based, Human", "settings": "TAT-peptide", "procedure": "(§1) Cells were seeded into 12-well plates at a density of 1 × 10^4 cells per well. Manual cell counting was carried out at the indicated times using trypan blue and a haemocytometer.\n(§2) To determine the antitumour effect of the peptide in vitro, the peptide was incubated with cells for 24 h when the cells were grown to approximately 80% confluence. Cell viability was measured at the indicated time points. The cell lysates were collected for immunoprecipitation as described above. To determine the antitumour effect of the peptide in vivo, the peptide was stereotactically injected using identical coordinates of tumour implantation in 3 μl of PBS. Briefly, 3 weeks after intracranial tumour cell implantation, mice with similar tumour sizes and similar weights were selected and randomly arranged into five groups (n = 6): PBS, PepC (0.25 mg/kg TAT-PepC per injection), Pep9 low dose (Pep9 L, 0.05 mg/kg TAT-Pep9 per injection), Pep9 medium dose (Pep9 M, 0.1 mg/kg TAT-Pep9 per injection), and Pep9 high dose (Pep9 H, 0.25 mg/kg TAT-Pep9 per injection). Each mouse received intratumoural injection every 10 days (at Day 21, Day 31, Day 41, and Day 51), and tumour growth was monitored at Day 21, Day 41, and Day 56. The experiment was terminated at Day 80, and all the mice (if they were alive) were sacrificed as previously described."}, "LN18 cells": {"system": "LN18 cells", "test": "Cell proliferation / viability assay, LN18", "format": "cell-based, Human", "settings": "Supplementary Figure 8c", "procedure": "as §1, §2"}}, "data": [{"sequence": "SAEGYQYRALYD [Pep1, peptide found on the p85α SH3 domain; selected as the control named PepC]", "values": [{"measurement": "Relative cell viability", "setting": "LN229 cells; concentration 5 (unit not given), replicate 1", "value": 0.87}, {"measurement": "Relative cell viability", "setting": "LN229 cells; concentration 5 (unit not given), replicate 2", "value": 0.87}, {"measurement": "Relative cell viability", "setting": "LN229 cells; concentration 5 (unit not given), replicate 3", "value": 0.99}, {"measurement": "Relative cell viability", "setting": "LN229 cells; concentration 10 (unit not given), replicate 1", "value": 1.05}, {"measurement": "Relative cell viability", "setting": "LN229 cells; concentration 10 (unit not given), replicate 2", "value": 0.89}, {"measurement": "Relative cell viability", "setting": "LN229 cells; concentration 10 (unit not given), replicate 3", "value": 0.97}, {"measurement": "Relative cell viability", "setting": "LN229 cells; concentration 20 (unit not given), replicate 1", "value": 0.94}, {"measurement": "Relative cell viability", "setting": "LN229 cells; concentration 20 (unit not given), replicate 2", "value": 0.96}, {"measurement": "Relative cell viability", "setting": "LN229 cells; concentration 20 (unit not given), replicate 3", "value": 1.01}, {"measurement": "Relative cell viability", "setting": "LN229 cells; concentration 30 (unit not given), replicate 1", "value": 0.95}, {"measurement": "Relative cell viability", "setting": "LN229 cells; concentration 30 (unit not given), replicate 2", "value": 0.96}, {"measurement": "Relative cell viability", "setting": "LN229 cells; concentration 30 (unit not given), replicate 3", "value": 1.02}, {"measurement": "Relative cell viability", "setting": "LN18 cells; 5 μM, replicate 1", "value": 0.95}, {"measurement": "Relative cell viability", "setting": "LN18 cells; 5 μM, replicate 2", "value": 0.92}, {"measurement": "Relative cell viability", "setting": "LN18 cells; 5 μM, replicate 3", "value": 0.93}, {"measurement": "Relative cell viability", "setting": "LN18 cells; 10 μM, replicate 1", "value": 0.92}, {"measurement": "Relative cell viability", "setting": "LN18 cells; 10 μM, replicate 2", "value": 0.95}, {"measurement": "Relative cell viability", "setting": "LN18 cells; 10 μM, replicate 3", "value": 0.90}, {"measurement": "Relative cell viability", "setting": "LN18 cells; 20 μM, replicate 1", "value": 0.95}, {"measurement": "Relative cell viability", "setting": "LN18 cells; 20 μM, replicate 2", "value": 0.92}, {"measurement": "Relative cell viability", "setting": "LN18 cells; 20 μM, replicate 3", "value": 0.90}, {"measurement": "Relative cell viability", "setting": "LN18 cells; 30 μM, replicate 1", "value": 0.92}, {"measurement": "Relative cell viability", "setting": "LN18 cells; 30 μM, replicate 2", "value": 0.88}, {"measurement": "Relative cell viability", "setting": "LN18 cells; 30 μM, replicate 3", "value": 0.94}]}]}
